Reference: ChEMBL document CHEMBL5608163, “Structure modification of anoplin for fighting resistant bacteria” (Eur J Med Chem, 2024)
≈ marks a conversion by molar mass, not a printed value. Peptide text beside a SMILES is read from it.

Key:
Escherichia coli [1] = experiment: Antibacterial activity against Escherichia coli K12 assessed as bacterial growth inhibition measured for 18 hrs by CLSI-protocol based Mueller-Hinton Broth micro-dilution assay; format: functional
Staphylococcus aureus [2] = experiment: Antibacterial activity against Staphylococcus aureus ATCC 25923 assessed as reduction in bacterial growth measured after 24 hrs by Mueller-Hinton broth based two-fold serial dilution method; format: functional
Bacillus subtilis [3] = experiment: Antibacterial activity against Bacillus subtilis assessed as reduction in bacterial growth incubated for 20 hrs by broth microdilution assay; format: functional
Staphylococcus aureus [4] = experiment: Antibacterial activity against Staphylococcus aureus ATCC 29213 assessed as bacterial growth inhibition measured for 18 hrs by CLSI-protocol based Mueller-Hinton Broth micro-dilution assay; format: functional
Bacillus subtilis [5] = experiment: Antimicrobial activity against Bacillus subtilis assessed as reduction in microbial growth measured after 18 to 20 hrs by Mueller-Hinton broth based two-fold serial dilution method; format: functional; settings: time 18-20 hrs
Erythrocyte = experiment: Hemolytic activity in sheep RBC incubated for 30 mins; format: toxicity, cell-based, Ovis aries; settings: 0.5 h
Pseudomonas aeruginosa [6] = experiment: Antibacterial activity against Pseudomonas aeruginosa ATCC 27853 assessed as bacterial growth inhibition measured for 18 hrs by CLSI-protocol based Mueller-Hinton Broth micro-dilution assay; format: functional
Pseudomonas aeruginosa [7] = experiment: Antibacterial activity against Pseudomonas aeruginosa assessed as reduction in bacterial growth incubated for 20 hrs by broth microdilution assay; format: functional
[8] = Hemolytic activity against Red blood cells (unknown origin) incubated for 1 hr by spectrophotometric analysis; format: toxicity, cell-based, Erythrocyte
Pseudomonas aeruginosa [9] = experiment: Antibacterial activity against Pseudomonas aeruginosa PAO1 assessed as bacterial growth inhibition measured for 18 hrs by CLSI-protocol based Mueller-Hinton Broth micro-dilution assay; format: functional
Bacillus subtilis [10] = experiment: Antibacterial activity against Bacillus subtilis 168 assessed as bacterial growth inhibition measured for 18 hrs by CLSI-protocol based Mueller-Hinton Broth micro-dilution assay; format: functional
Escherichia coli [11] = experiment: Antibacterial activity against Escherichia coli ATCC 25922 assessed as reduction in bacterial growth measured after 24 hrs by Mueller-Hinton broth based two-fold serial dilution method; format: functional
Staphylococcus aureus [12] = experiment: Antibacterial activity against Staphylococcus aureus assessed as bacterial growth inhibition incubated for 20 hrs by broth microdilution assay; format: functional
Escherichia coli [13] = experiment: Antibacterial activity against wild type Escherichia coli MG1655 assessed as reduction in bacterial growth incubated for 18 to 24 hrs by broth micro-dilution method; format: functional; settings: time 18-24 hrs
Salmonella typhimurium = experiment: Antibacterial activity against Salmonella enterica subsp. enterica serovar Typhimurium LT2 assessed as bacterial growth inhibition measured for 18 hrs by CLSI-protocol based Mueller-Hinton Broth micro-dilution assay; format: functional
Staphylococcus aureus [14] = experiment: Antibacterial activity against methicillin-resistant Staphylococcus aureus ATCC BAA1720 assessed as bacterial growth inhibition measured for 18 hrs by CLSI-protocol based Mueller-Hinton Broth micro-dilution assay; format: functional
Escherichia coli [15] = experiment: Antibacterial activity against Escherichia coli assessed as reduction in bacterial growth incubated for 20 hrs by broth microdilution assay; format: functional
Escherichia coli [16] = experiment: Antibacterial activity against Escherichia coli MG1655 assessed as bacterial growth inhibition measured for 18 hrs by CLSI-protocol based Mueller-Hinton Broth micro-dilution assay; format: functional
Escherichia coli [17] = experiment: Antibacterial activity against Escherichia coli; format: functional
Pseudomonas aeruginosa [18] = experiment: Antibacterial activity against Pseudomonas aeruginosa; format: functional
[19] = Hemolytic activity in human red blood cells; format: toxicity, cell-based, Erythrocyte; settings: red blood cells
[20] = Hemolytic activity in human RBC assessed as hemolysis measured after 24 hrs; format: toxicity, cell-based, Erythrocyte; settings: red blood cells
Enterococcus faecium [21] = experiment: Antibacterial activity against Enterococcus faecium; format: functional
Staphylococcus aureus [22] = experiment: Antibacterial activity against Staphylococcus aureus; format: functional
Bacillus subtilis [23] = experiment: Antibacterial activity against Bacillus subtilis assessed as reduction in bacterial growth incubated for 24 hrs by broth microdilution assay; format: functional
[24] = tested on: Mycolicibacterium smegmatis; experiment: Antimycobacterial activity against Mycobacterium smegmatis mc2 155 assessed as reduction in bacterial cell growth by resazurin reduction method; format: functional
Enterococcus faecium [25] = experiment: Antibacterial activity against vancomycin resistant Enterococcus faecium ATCC 700221 assessed as inhibition of bacterial growth incubated for 48 hrs by CLSI-based broth microdilution assay; format: functional
Staphylococcus aureus [26] = experiment: Antibacterial activity against methicillin-resistant Staphylococcus aureus ATCC 33591 assessed as reduction in bacterial growth incubated for 18 hrs by agar dilution method; format: functional
Pseudomonas aeruginosa [27] = experiment: Antibacterial activity against Pseudomonas aeruginosa ATCC 27853 assessed as reduction in microbial growth incubated for 16 to 20 hrs by CLSI protocol based Muller Hinton broth assay; format: functional; settings: time 16-20 hrs
Escherichia coli [28] = experiment: Antibacterial activity against Escherichia coli ATCC 25922 assessed as reduction in microbial growth incubated for 16 to 20 hrs by CLSI protocol based Muller Hinton broth assay; format: functional; settings: time 16-20 hrs
Bacillus subtilis [29] = experiment: Antibacterial activity against Bacillus subtilis ATCC 23857 assessed as reduction in bacterial cell growth incubated for 24 hrs by broth micro-dilution analysis; format: functional
Escherichia coli [30] = experiment: Antibacterial activity against Escherichia coli DH5alpha assessed as bacterial growth inhibition; format: functional

SMILES: CC.CC[C@H](C)[C@H](NC(=O)[C@H](CCCNC(=N)N)NC(=O)[C@H](CCCCN)NC(=O)[C@H](CC(C)C)NC(=O)[C@H](CC(C)C)NC(=O)CN)C(=O)N[C@@H](CCCCN)C(=O)N[C@H](C(=O)N[C@@H](CC(C)C)C(=O)N[C@@H](CC(C)C)C(N)=O)[C@@H](C)O
- MIC (Escherichia coli [1]): 32 µM
- MIC (Staphylococcus aureus [2]): 11.3 µM
- MIC (Bacillus subtilis [3]): 32 µM
- MIC (Staphylococcus aureus [4]): ≥ 64 µM
- MIC (Bacillus subtilis [5]): 16 µM
- HC10 (Erythrocyte): > 64 µM
- MIC (Pseudomonas aeruginosa [6]): 32 µM
- MIC (Pseudomonas aeruginosa [7]): 32 µM
- HC50 at 1 h [8]: > 400 µM
- MIC (Pseudomonas aeruginosa [9]): 16 µM
- MIC (Bacillus subtilis [10]): 16 µM
- MIC (Escherichia coli [11]): > 22.6 µM
- MIC (Staphylococcus aureus [12]): 64 µM
- MIC (Escherichia coli [13]): 32 µM
- MIC (Salmonella typhimurium): 64 µM
- MIC (Staphylococcus aureus [14]): ≥ 64 µM
- MIC (Escherichia coli [15]): 64 µM
- MIC (Escherichia coli [16]): 32 µM

SMILES: CC[C@H](C)[C@H](NC(=O)[C@H](CCCCN)NC(=O)[C@H](CCCCN)NC(=O)[C@H](CC(C)C)NC(=O)[C@H](CC(C)C)NC(=O)CN)C(=O)N[C@@H](CCCCN)C(=O)N[C@@H](CCCCN)C(=O)N[C@@H](CC(C)C)C(=O)N[C@@H](CC(C)C)C(N)=O
- MIC (Escherichia coli [17]): 25 µM (≈ 28.8 µg/mL)
- MIC (Pseudomonas aeruginosa [18]): 28.4 µM (≈ 32.7 µg/mL)
- HC50 [19]: < 500 µM
- HC50 at 24 h [20]: > 500 µM
- MIC (Enterococcus faecium [21]): 56.9 µM (≈ 65.6 µg/mL)
- MIC (Staphylococcus aureus [22]): 256 µM (≈ 295 µg/mL)

SMILES: CC[C@H](C)[C@H](NC(=O)[C@H](Cc1ccccc1)NC(=O)[C@H](CCCCN)NC(=O)[C@H](CC(C)C)NC(=O)[C@H](CC(C)C)NC(=O)CN)C(=O)N[C@@H](CCCCN)C(=O)N[C@@H](CCCCN)C(=O)N[C@@H](CC(C)C)C(=O)N[C@@H](CC(C)C)C(N)=O (H-GLLKFIKKLL-NH2)
- MIC (Bacillus subtilis [23]): 25.6 µM (≈ 30 µg/mL)
- MIC [24]: 12.8 µM (≈ 15 µg/mL)
- MIC (Enterococcus faecium [25]): 9.5 µM (≈ 11.1 µg/mL)
- MIC (Staphylococcus aureus [26]): 9.5 µM (≈ 11.1 µg/mL)
- MIC (Pseudomonas aeruginosa [27]): 28.4 µM
- HC50 at 24 h [20]: 13.6 µM
- MIC (Escherichia coli [28]): 9.5 µM

SMILES: CC[C@H](C)[C@H](NC(=O)[C@H](CCCNC(=N)N)NC(=O)[C@H](CCCCN)NC(=O)[C@H](CC(C)C)NC(=O)[C@H](CC(C)C)NC(=O)CN)C(=O)N[C@@H](CCCCN)C(=O)N[C@H](C(=O)N[C@@H](CC(C)C)C(=O)N[C@@H](CC(C)C)C(N)=O)[C@@H](C)O [ANOPLIN]
- MIC (Bacillus subtilis [29]): 43.4 µM (≈ 50.1 µg/mL)
- MIC (Escherichia coli [30]): 86.7 µM (≈ 100 µg/mL)
